Where “and” joins values, the source holds several entries; their conditions need not be identical. Equal entries are not always repeated.
Tested on: WM3248 melanoma cells, 486 antibodies
Experiment: Reverse phase protein arrays (RPPA)
Format: cell-based, Human
Details: 20, normalized to 0
Excerpt: Pellets were snap frozen in liquid nitrogen and shipped to MD Anderson Cancer Center core RPPA facility for RPPA analysis (Table S5). Three biological replicates for each sample were generated.
Nomenclatures on the RPPA heatmaps: name_of_antibody.species_of_antibody.status_of_antibody. V - antibody validated; C - validation of antibody in progress; Q - antibody nonspecific; E – under evaluation; antibodies raised in M - mouse, G - goat, R - rabbit, or T - rat.

CN(C)c1cccc(Nc2cc(-c3ccccc3)nc(C3CCNCC3)n2)c1 [ARN22089, N1,N1-dimethyl-N3-(6-phenyl-2-(piperidin-4-yl)pyrimidin-4-yl)benzene-1,3-diamine]
HER2.M.V Norm_20 Average (average): 0.995 | HER2_pY1248.R.V Norm_20 Average (average): 1.030 | HER3.R.V Norm_20 Average (average): 0.904 | HER3_pY1289.R.C Norm_20 Average (average): 1.084 | Heregulin.R.V Norm_20 Average (average): 1.046 | eEF2.R.C Norm_20 Average (average): 1.639 | eEF2K.R.V Norm_20 Average (average): 1.409 | eIF4E.R.V Norm_20 Average (average): 1.114 | eIF4G.R.C Norm_20 Average (average): 1.165 | DNMT1.R.V Norm_20 (replicates 1-3): 0.937 and 0.801 | DRP1.R.V Norm_20 (replicates 1-3): 1.019 and 0.894 and 0.979 | DUSP4.R.V Norm_20 (replicates 1-3): 0.537 and 0.626 and 1.006 | DUSP6.R.C Norm_20 (replicates 1-3): 1.405 and 1.064 and 2.195 | DYRK1B.R.C Norm_20 (replicates 1-3): 0.868 and 0.959 and 0.907 | Dvl3.R.V Norm_20 (replicates 1-3): 0.990 and 1.118 and 0.985 | E2F1.R.V Norm_20 (replicates 1-3): 1.446 and 1.251 | E.Cadherin.R.V Norm_20 (replicates 1-3): 0.696 and 0.873 and 0.994 | EGFR.R.V Norm_20 (replicates 1-3): 1.083 and 1.189 and 1.125 | EGFR_pY1068.R.C Norm_20 (replicates 1-3): 0.892 and 0.889 and 0.961 | EGFR_pY1173.R.V Norm_20 (replicates 1-3): 1.079 and 1.019 and 1.046 | EMA.M.C Norm_20 (replicates 1-3): 0.566 and 0.868 and 0.914 | ENY2.M.C Norm_20 (replicates 1-3): 0.866 and 0.944 and 1.047 | ER.a.R.V Norm_20 (replicates 1-3): 0.939 and 0.862 and 1.078 | ER.a_pS118.R.V Norm_20 (replicates 1-3): 1.167 and 1.838 and 0.928 | ERCC1.R.C Norm_20 (replicates 1-3): 0.964 and 0.974 | ERCC5.R.C Norm_20 (replicates 1-3): 1.290 and 0.989 and 1.051 | ERRalpha.R.V Norm_20 (replicates 1-3): 0.831 and 1.056 and 1.002 | EVI1.R.V Norm_20 (replicates 1-3): 0.975 and 0.917 | Enolase.1.R.V Norm_20 (replicates 1-3): 1.030 and 1.152 | Enolase.2.R.V Norm_20 (replicates 1-3): 0.990 and 0.970 and 0.883 | EphA2.R.V Norm_20 (replicates 1-3): 0.706 and 0.773 and 0.765 | EphA2_pS897.R.C Norm_20 (replicates 1-3): 0.536 and 0.635 and 0.720 | EphA2_pY588.R.C Norm_20 (replicates 1-3): 0.930 and 1.018 and 0.973 | Erk5.R.V Norm_20 (replicates 1-3): 0.948 and 0.789 and 1.013 | Ets.1.R.V Norm_20 (replicates 1-3): 1.373 and 1.347 and 1.417 | FABP5.R.C Norm_20 (replicates 1-3): 1.102 and 1.223 and 1.428 | FAK.R.C Norm_20 (replicates 1-3): 0.837 and 0.917 | FAK_pY397.R.V Norm_20 (replicates 1-3): 0.847 and 0.989 and 0.940 | FANCD2.R.V Norm_20 (replicates 1-3): 0.831 and 0.901 and 0.823 | FASN.R.V Norm_20 (replicates 1-3): 0.802 and 0.983 | FGF.basic.R.C Norm_20 (replicates 1-3): 0.939 and 0.836 and 1.240 | FN14.R.C Norm_20 (replicates 1-3): 1.082 and 0.902 and 1.335 | FOXM1.R.V Norm_20 (replicates 1-3): 0.995 and 0.889 and 0.924 | FOXO3.R.V Norm_20 (replicates 1-3): 1.160 and 1.151 and 0.915 | FRS2.alpha_pY196.R.V Norm_20 (replicates 1-3): 0.925 and 1.195 and 1.058 | FTO.R.V Norm_20 (replicates 1-3): 0.992 | Fibronectin.R.V Norm_20 (replicates 1-3): 1.153 and 1.290 and 1.137 | FoxO3a_pS318_S321.R.C Norm_20 (replicates 1-3): 1.105 and 0.940 | G6PD.R.V Norm_20 (replicates 1-3): 0.877 and 1.061 and 0.923 | GATA3.M.V Norm_20 (replicates 1-3): 1.203 and 1.452 and 1.301 | GATA6.R.V Norm_20 (replicates 1-3): 0.945 and 0.991 and 0.928 | GCLC.R.C Norm_20 (replicates 1-3): 0.882 and 0.967 and 1.220 | GCLM.R.V Norm_20 (replicates 1-3): 0.988 and 1.024 and 0.965 | GCN5L2.R.V Norm_20 (replicates 1-3): 0.974 and 0.944 | GGPS1.M.V Norm_20 (replicates 1-3): 0.920 and 0.992 and 1.155 | GRB2.R.V Norm_20 (replicates 1-3): 0.992 and 0.862 and 0.948 | GRB7.R.V Norm_20 (replicates 1-3): 0.909 and 0.898 | GSK.3B.R.C Norm_20 (replicates 1-3): 0.896 and 0.924 | GSK.3a.b.M.V Norm_20 (replicates 1-3): 0.918 and 0.992 | GSK.3a.b_pS21_S9.R.V Norm_20 (replicates 1-3): 1.411 and 1.207 | Gab2.R.V Norm_20 (replicates 1-3): 1.447 and 1.019 | Gli1.R.C Norm_20 (replicates 1-3): 0.898 and 0.922 and 1.028 | Gli3.R.C Norm_20 (replicates 1-3): 1.237 and 1.346 and 1.321 | Glucocorticoid.Receptor.R.V Norm_20 (replicates 1-3): 1.227 and 1.295 and 0.987 | Glutamate.D1.2.R.V Norm_20 (replicates 1-3): 1.198 | Glutaminase.R.C Norm_20 (replicates 1-3): 1.026 and 1.144 and 1.364 | Granzyme.B.R.V Norm_20 (replicates 1-3): 1.284 and 1.028 | Grp75.R.C Norm_20 (replicates 1-3): 1.594 and 1.052 and 0.939 | Gys.R.V Norm_20 (replicates 1-3): 0.807 and 0.941 and 1.104 | Gys_pS641.R.V Norm_20 (replicates 1-3): 0.671 and 0.818 and 1.079 | H2AX_pS139.R.C Norm_20 (replicates 1-3): 1.188 and 2.081 and 1.030 | H2AX_pS140.M.C Norm_20 (replicates 1-3): 1.001 and 1.667 and 1.028 | HER2.M.V Norm_20 (replicates 1-3): 0.977 and 0.952 and 1.056 | HER2_pY1248.R.V Norm_20 (replicates 1-3): 0.902 and 1.119 | HER3.R.V Norm_20 (replicates 1-3): 0.864 and 0.935 and 0.913 | HER3_pY1289.R.C Norm_20 (replicates 1-3): 1.059 and 1.124 | HES1.R.V Norm_20 (replicates 1-3): 1.224 and 0.849 and 1.063 | Heregulin.R.V Norm_20 (replicates 1-3): 1.048 and 1.050 | eEF2.R.C Norm_20 (replicates 1-3): 1.328 and 1.602 and 1.986 | eEF2K.R.V Norm_20 (replicates 1-3): 1.469 and 1.590 and 1.169 | eIF4E.R.V Norm_20 (replicates 1-3): 1.107 and 0.843 and 1.392

From paper PMC9127750, “Structure-based design of CDC42 effector interaction inhibitors for the treatment of cancer” (Cell reports, 2022)
